Laboratory results: ChEMBL document CHEMBL1201862, “PubChem BioAssay data set” (2004)
The source made the active and inactive calls.

Key:
[1] = molecular target: T1, Sentrin-specific protease 8 (Homo sapiens, UniProt Q96LD8); test: SENP8 protease inhibitors, SAR follow-up, biochemical, luminescence (AID 504501); assay type: functional
T1 sequence (Q96LD8 whole entry): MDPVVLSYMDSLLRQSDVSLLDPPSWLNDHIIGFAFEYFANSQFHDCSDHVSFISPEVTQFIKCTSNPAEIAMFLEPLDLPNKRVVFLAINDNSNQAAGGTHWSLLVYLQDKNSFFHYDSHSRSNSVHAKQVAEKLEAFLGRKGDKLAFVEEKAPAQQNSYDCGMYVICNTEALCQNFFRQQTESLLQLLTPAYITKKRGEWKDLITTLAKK

[2] = molecular target: T2, Caspase-3 (Homo sapiens, UniProt P42574); test: SAR Analysis of small molecule inhibitors of Sentrin-specific proteases (SENPs) using a Caspase-3 Selectivity assay. [Related pubchem assays (depositor defined):AID2540, AID2599, AID434973, AID489001]; assay type: functional
T2 sequence (P42574 whole entry): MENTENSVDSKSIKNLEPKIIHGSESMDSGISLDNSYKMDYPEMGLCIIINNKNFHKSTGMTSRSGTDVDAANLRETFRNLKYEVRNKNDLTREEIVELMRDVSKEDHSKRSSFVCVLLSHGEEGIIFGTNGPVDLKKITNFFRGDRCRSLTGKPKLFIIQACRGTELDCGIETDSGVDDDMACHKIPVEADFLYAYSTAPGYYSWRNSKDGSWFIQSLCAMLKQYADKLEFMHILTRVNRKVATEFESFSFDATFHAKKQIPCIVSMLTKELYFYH

[3] = molecular target: T3, Sentrin-specific protease 6 (Homo sapiens, UniProt Q9GZR1); test: SAR Analysis of small molecule inhibitors of Sentrin-specific protease 6 (SENP6) using a Luminescent assay. [Related pubchem assays (depositor defined):AID2582, AID2599]; assay type: functional
T3 sequence (Q9GZR1 whole entry): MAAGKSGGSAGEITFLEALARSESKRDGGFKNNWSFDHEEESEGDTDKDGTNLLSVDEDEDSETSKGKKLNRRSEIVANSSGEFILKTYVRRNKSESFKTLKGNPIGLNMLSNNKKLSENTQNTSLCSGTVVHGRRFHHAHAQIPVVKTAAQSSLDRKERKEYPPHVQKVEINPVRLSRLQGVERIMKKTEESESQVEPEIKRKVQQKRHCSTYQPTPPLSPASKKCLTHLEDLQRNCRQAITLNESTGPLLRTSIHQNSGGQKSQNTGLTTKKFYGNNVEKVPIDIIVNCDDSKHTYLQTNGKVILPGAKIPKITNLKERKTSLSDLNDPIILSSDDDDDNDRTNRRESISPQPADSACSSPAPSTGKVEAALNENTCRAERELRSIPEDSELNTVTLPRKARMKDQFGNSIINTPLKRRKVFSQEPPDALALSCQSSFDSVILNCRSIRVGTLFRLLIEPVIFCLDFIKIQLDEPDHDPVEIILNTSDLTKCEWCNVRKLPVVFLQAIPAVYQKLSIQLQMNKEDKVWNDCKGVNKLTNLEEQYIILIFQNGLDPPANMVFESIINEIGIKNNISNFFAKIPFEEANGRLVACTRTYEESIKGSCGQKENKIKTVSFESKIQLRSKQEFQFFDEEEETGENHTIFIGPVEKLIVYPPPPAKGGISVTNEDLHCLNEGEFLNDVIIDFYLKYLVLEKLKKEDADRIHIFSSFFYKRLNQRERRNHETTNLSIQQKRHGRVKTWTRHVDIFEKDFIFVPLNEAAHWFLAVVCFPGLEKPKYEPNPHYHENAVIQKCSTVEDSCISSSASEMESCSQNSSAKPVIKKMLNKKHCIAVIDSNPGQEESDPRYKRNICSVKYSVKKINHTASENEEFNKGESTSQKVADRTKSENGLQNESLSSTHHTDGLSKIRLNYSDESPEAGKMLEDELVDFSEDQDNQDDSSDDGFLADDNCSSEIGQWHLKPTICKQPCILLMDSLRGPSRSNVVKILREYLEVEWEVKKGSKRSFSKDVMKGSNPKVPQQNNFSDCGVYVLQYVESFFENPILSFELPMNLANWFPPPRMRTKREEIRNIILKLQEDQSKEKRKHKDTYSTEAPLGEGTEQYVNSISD

[4] = molecular target: T4, Sentrin-specific protease 7 (Homo sapiens, UniProt Q9BQF6); test: SENP7 protease inhibitors, SAR follow-up, biochemical, luminescence (AID 504497); assay type: functional
T4 sequence (Q9BQF6 whole entry): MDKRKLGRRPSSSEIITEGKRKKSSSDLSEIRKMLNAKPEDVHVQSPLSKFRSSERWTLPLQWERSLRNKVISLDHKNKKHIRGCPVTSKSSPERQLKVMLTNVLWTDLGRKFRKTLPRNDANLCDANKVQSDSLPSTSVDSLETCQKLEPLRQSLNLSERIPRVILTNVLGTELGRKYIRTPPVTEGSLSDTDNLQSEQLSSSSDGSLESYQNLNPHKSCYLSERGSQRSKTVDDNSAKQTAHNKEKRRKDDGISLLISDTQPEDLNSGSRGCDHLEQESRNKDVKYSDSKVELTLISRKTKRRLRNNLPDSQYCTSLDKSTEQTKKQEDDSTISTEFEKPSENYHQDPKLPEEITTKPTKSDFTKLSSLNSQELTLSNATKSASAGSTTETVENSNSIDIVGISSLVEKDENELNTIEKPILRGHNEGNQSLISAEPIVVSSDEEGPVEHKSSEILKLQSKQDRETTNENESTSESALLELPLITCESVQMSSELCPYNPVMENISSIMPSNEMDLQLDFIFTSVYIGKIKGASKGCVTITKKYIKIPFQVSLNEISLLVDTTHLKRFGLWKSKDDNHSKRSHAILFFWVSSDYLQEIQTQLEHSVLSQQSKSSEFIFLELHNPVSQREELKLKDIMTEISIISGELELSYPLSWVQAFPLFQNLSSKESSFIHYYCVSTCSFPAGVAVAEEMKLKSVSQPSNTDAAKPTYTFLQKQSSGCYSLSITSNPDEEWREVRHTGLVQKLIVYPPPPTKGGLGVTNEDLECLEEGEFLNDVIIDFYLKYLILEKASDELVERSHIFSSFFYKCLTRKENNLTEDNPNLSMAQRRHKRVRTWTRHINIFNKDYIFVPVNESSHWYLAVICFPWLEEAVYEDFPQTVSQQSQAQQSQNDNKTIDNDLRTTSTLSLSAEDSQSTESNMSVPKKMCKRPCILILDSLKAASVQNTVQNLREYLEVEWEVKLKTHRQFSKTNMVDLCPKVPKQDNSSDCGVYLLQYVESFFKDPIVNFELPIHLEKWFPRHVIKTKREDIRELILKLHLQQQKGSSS

[5] = tested on: BJ; test: cytotoxicity toward BJ-TERT fibroblasts, dose response, cell-based, RAS-independent, luminescence (AID 1933); assay type: functional; details: Homo sapiens
[6] = tested on: BJ; test: cells; assay type: functional, cell-based; details: Homo sapiens
[7] = tested on: BJ; test: cytotoxicity toward BJ-TERT-LT-ST fibroblasts, dose response, cell-based, RAS-independent, luminescence (AID 1935); assay type: functional; details: Homo sapiens;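 note: BJ fibroblasts immortalized with TERT plus LT and ST oncogenes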
[8] = cytotoxicity toward DRD oncogenic fibroblasts, dose response, cell-based, non-viral oncogenic, luminescence (AID 1934); assay type: functional; details: Homo sapiens
[9] = tested on: BJ; test: cytotoxicity toward Ras-transformed BJeLR fibroblasts, dose response, cell-based, alamar blue fluorescence, cherrypicked samples (AID 2631); assay type: functional; details: Homo sapiens;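 note: confirmatory dose-response assay in RAS-dependent BJ fibroblasts engineered with TERT, LT and ST, with cytotoxicity read by fluorescence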
[10] = molecular target: Cysteine protease ATG4B (Homo sapiens, UniProt Q9Y4P1); assay type: functional;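 note: Fluorescence-based dose-response confirmation assay measuring inhibition of ATG4B activity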
Cysteine protease ATG4B, sequence (Q9Y4P1 whole entry): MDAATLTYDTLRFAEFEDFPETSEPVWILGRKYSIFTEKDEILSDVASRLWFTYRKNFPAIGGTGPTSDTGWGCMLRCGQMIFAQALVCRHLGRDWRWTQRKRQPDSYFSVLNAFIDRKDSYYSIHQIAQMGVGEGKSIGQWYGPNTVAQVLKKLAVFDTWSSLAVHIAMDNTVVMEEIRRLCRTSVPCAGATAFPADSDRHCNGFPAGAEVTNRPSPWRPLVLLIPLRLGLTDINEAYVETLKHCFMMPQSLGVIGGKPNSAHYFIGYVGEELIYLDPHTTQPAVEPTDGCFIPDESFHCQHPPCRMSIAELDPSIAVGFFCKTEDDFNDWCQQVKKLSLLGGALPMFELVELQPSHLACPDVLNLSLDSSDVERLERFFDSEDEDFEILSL

[11] = molecular target: Heat shock protein HSP 90-alpha (Homo sapiens, UniProt P07900); assay type: functional, organism-based
[12] = molecular target: Phospholipase A2 (Homo sapiens, UniProt P04054); assay type: functional;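 note: confirmatory dose-response counterscreen on phospholipase A2, testing hits that came from an ultra-high-throughput screen for ATG4B inhibitors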
Phospholipase A2, sequence (P04054 whole entry): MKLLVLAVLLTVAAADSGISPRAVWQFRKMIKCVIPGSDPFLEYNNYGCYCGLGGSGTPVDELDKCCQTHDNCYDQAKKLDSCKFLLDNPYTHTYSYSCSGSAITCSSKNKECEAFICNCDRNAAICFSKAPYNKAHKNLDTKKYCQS

[13] = molecular target: 26S proteasome non-ATPase regulatory subunit 14 (Homo sapiens, UniProt O00487); test: inhibition of proteasome subunit RPN11 – biochemical, fluorescence polarization, uHTS hits, confirmation (AID 602368); assay type: functional
26S proteasome non-ATPase regulatory subunit 14, sequence (O00487 whole entry): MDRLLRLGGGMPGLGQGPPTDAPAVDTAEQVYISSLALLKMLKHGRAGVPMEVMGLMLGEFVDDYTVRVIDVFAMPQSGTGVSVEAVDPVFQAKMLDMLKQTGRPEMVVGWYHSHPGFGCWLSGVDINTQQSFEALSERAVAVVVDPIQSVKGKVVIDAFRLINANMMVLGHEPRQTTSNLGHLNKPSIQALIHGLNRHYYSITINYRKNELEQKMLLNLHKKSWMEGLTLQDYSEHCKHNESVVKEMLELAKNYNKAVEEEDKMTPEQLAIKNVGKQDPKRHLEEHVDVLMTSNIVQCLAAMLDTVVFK

[14] = molecular target: 72 kDa type IV collagenase (Homo sapiens, UniProt P08253); test: Dose Response validation of uHTS RPN11 inhibitor hits using a MMP-2 Fluorescence assay.; assay type: functional
72 kDa type IV collagenase, sequence (P08253 whole entry): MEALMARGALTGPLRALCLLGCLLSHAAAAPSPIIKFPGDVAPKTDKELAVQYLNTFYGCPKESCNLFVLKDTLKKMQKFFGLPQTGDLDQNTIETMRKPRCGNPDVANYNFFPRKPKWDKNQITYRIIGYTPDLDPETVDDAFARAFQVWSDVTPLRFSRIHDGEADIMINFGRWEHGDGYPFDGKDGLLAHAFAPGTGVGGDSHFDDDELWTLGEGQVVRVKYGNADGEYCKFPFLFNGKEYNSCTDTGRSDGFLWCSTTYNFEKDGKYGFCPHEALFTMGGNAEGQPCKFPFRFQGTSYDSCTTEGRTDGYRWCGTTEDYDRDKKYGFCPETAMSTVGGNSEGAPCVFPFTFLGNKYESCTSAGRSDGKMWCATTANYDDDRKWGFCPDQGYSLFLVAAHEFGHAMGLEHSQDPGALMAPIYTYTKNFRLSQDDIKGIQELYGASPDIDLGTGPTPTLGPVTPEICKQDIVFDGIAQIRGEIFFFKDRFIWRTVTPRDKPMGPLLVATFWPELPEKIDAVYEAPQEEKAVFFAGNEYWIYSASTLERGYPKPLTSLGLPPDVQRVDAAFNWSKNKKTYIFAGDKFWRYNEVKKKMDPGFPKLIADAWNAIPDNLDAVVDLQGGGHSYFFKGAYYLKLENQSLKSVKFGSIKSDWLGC

[15] = molecular target: Prothrombin (Bos taurus, UniProt P00735); test: thrombin inhibition, dose response, biochemical, fluorescence polarization, uHTS hits (AID 602369); assay type: functional
[16] = HeLa cell cytotoxicity, dose response, cytotoxicity control for MgcRacGAP inhibitor project (AID 624300); assay type: functional
[17] = molecular target: T5, Rac GTPase-activating protein 1 (Homo sapiens, UniProt Q9H0H5); test: MgcRacGAP GTPase-activating activity inhibitors, confirmation, biochemical, ADP Hunter fluorescence, primary and confirmatory (AID 624330); assay type: functional
T5 sequence (Q9H0H5 whole entry): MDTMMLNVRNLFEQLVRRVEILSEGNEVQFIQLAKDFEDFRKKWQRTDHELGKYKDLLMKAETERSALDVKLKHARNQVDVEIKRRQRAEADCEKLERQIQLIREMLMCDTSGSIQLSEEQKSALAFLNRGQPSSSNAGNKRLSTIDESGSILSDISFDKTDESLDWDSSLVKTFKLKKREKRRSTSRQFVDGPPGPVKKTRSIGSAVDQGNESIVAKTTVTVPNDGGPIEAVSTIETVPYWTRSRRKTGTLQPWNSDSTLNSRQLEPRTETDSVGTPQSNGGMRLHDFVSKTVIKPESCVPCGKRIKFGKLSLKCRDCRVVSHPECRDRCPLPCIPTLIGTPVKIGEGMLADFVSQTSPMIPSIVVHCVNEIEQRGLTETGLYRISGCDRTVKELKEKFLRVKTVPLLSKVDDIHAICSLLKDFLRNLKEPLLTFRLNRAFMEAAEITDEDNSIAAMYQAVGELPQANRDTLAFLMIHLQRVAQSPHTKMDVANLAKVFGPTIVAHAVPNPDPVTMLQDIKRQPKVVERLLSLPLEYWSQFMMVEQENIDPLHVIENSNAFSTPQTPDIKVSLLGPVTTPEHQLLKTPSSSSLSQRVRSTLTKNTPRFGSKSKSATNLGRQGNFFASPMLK

[18] = molecular target: T6, DNA repair protein RAD52 homolog (Homo sapiens, UniProt P43351); assay type: functional, biochemical
T6 sequence (P43351 whole entry): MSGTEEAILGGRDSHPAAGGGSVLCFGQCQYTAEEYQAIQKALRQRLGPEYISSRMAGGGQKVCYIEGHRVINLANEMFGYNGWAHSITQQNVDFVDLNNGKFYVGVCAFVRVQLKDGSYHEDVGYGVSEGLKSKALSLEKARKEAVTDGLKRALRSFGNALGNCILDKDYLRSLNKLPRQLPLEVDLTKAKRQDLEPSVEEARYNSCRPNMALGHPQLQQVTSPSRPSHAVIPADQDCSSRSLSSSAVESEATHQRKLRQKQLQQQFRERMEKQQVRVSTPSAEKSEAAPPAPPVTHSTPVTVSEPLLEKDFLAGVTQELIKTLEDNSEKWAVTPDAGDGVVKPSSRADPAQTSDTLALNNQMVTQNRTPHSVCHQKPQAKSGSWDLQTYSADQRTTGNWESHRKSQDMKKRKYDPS

IC50 [2] | IC50 [3] | IC50 [4] | SMILES | IC50 [1] | EC50 [5] | EC50 [6] | EC50 [7] | EC50 [8] | EC50 [9] | other results
18.7 µM (active) | 84.4 µM (active) | 10.9 µM (active) | CCCC(=O)Nc1ccc(-c2nc3cc(Cl)ccc3s2)cc1 | 82.4 µM (active) | – | – | – | – | – | –
– | – | – | O=C1SC(Cc2ccccc2)C(=O)N1c1ccccc1 (configuration not stated) | – | 5.85 µM (active) | > 150 µM (not active) | > 150 µM (not active) | 20.8 µM (active) | > 66.7 µM (inactive) | –
– | – | – | CCCCCCCCCCCCCCCC(O)C[N+](C)(C)CCO (configuration not stated) | – | – | – | – | – | – | IC50 [10]: 7.58 µM (active); AC50 [11]: 5 µM (active); IC50 [12]: 6.53 µM (active); IC50 [13]: 22.1 µM (active); IC50 [14]: 81.8 µM (active); IC50 [15]: 45.1 µM (active); CC50 [16]: 33.4 µM (active); IC50 [17]: 86 µM (active); AC50 [18]: < 30.4 µM (active)
> 99 µM (inactive) | > 99 µM (inactive) | 96.9 µM (active) | O=C(O)c1ccc(N/N=C/c2cn(Cc3ccccc3)c3ccccc23)cc1 | > 99 µM (inactive) | – | – | – | – | – | –
– | – | – | COc1cccc(/C=C2\SC(=S)N(CCCC(=O)Nc3cc(C)on3)C2=O)c1 | – | 3.22 µM (inconclusive) | > 150 µM (not active) | > 150 µM (not active) | > 150 µM (not active) | > 133 µM (inactive) | –
